Measurements reported in ChEMBL document CHEMBL3045816, “Synthesis and antimicrobial screening of 5-(benzylidene)-3-phenylthiazolidin-4-one derivatives incorporating thiazole ring” (Med Chem Res, 2013).
Converted amounts (≈) assume the structure as drawn.

What was measured:
Escherichia coli = assay: Antimicrobial activity against Escherichia coli MTCC 443 assessed as growth inhibition after 24 hr by turbidimetric method; assay type: functional; conditions: MTCC 443, 24 h
Streptococcus pyogenes = assay: Antimicrobial activity against Streptococcus pyogenes MTCC 442 assessed as growth inhibition after 24 hr by turbidimetric method; assay type: functional; conditions: MTCC 442, 24 h
Aspergillus clavatus = assay: Antimicrobial activity against Aspergillus clavatus MTCC 1323 assessed as growth inhibition after 48 hr; assay type: functional; conditions: MTCC 1323, 48 h
Staphylococcus aureus = assay: Antimicrobial activity against Staphylococcus aureus MTCC 96 assessed as growth inhibition after 24 hr by turbidimetric method; assay type: functional; conditions: MTCC 96, 24 h
Aspergillus niger = assay: Antimicrobial activity against Aspergillus niger MTCC 282 assessed as growth inhibition after 48 hr; assay type: functional; conditions: MTCC 282, 48 h
Pseudomonas aeruginosa = assay: Antimicrobial activity against Pseudomonas aeruginosa MTCC 1688 assessed as growth inhibition after 24 hr by turbidimetric method; assay type: functional; conditions: MTCC 1688, 24 h
Candida albicans = assay: Antimicrobial activity against Candida albicans MTCC 227 assessed as growth inhibition after 48 hr; assay type: functional; conditions: MTCC 227, 48 h
HepG2 = assay: Cytotoxicity against Homo sapiens (human) HepG2 cells by SRB assay; assay type: cell-based
HL-60 = assay: Cytotoxicity against Homo sapiens (human) HL60 cells by SRB assay; assay type: cell-based
A549 = assay: Cytotoxicity against Homo sapiens (human) A549 cells by SRB assay; assay type: cell-based

| SMILES | MIC (Escherichia coli) [µg/mL] | MIC (Streptococcus pyogenes) [µg/mL] | MIC (Aspergillus clavatus) [µg/mL] | MIC (Staphylococcus aureus) [µg/mL] | MIC (Aspergillus niger) [µg/mL] | MIC (Pseudomonas aeruginosa) [µg/mL] | MIC (Candida albicans) [µg/mL] | Activity (HepG2) | Activity (HL-60) | Activity (A549) |
| --- | --- | --- | --- | --- | --- | --- | --- | --- | --- | --- |
| COc1ccc(C(=O)Nc2nc(C)c(C(=O)NNC(=S)Nc3ccccc3)s2)cc1 | 500 (≈ 1130 µM) | 500 (≈ 1130 µM) | > 1000 | 500 (≈ 1130 µM) | 1000 (≈ 2260 µM) | 500 (≈ 1130 µM) | 1000 (≈ 2260 µM) |  |  |  |
| O=C(O)c1cn(C2CC2)c2cc(N3CCNCC3)c(F)cc2c1=O [CIPROFLOXACIN] | 25 (≈ 75.4 µM) | 50 (≈ 151 µM) |  | 50 (≈ 151 µM) |  |  |  |  |  |  |
| COc1ccc(C(=O)Nc2nc(C)c(C(=O)N/N=C3\S/C(=C\c4ccccc4)C(=O)N3c3ccccc3)s2)cc1 | 250 (≈ 439 µM) | 250 (≈ 439 µM) | 500 (≈ 878 µM) | 500 (≈ 878 µM) | 500 (≈ 878 µM) | 500 (≈ 878 µM) | 500 (≈ 878 µM) |  |  |  |
| COc1ccc(C(=O)Nc2nc(C)c(C(=O)N/N=C3\S/C(=C\c4ccccc4O)C(=O)N3c3ccccc3)s2)cc1 | 100 (≈ 171 µM) | 100 (≈ 171 µM) | 250 (≈ 427 µM) | 250 (≈ 427 µM) | 250 (≈ 427 µM) | 250 (≈ 427 µM) | 500 (≈ 854 µM) |  |  |  |
| COc1ccc(C(=O)Nc2nc(C)c(C(=O)N/N=C3\S/C(=C\c4ccc(O)cc4)C(=O)N3c3ccccc3)s2)cc1 | 50 (≈ 85.4 µM) | 250 (≈ 427 µM) | 250 (≈ 427 µM) | 50 (≈ 85.4 µM) | 100 (≈ 171 µM) | 250 (≈ 427 µM) | 250 (≈ 427 µM) | Non-toxic | Non-toxic | Non-toxic |
| COc1ccc(C(=O)Nc2nc(C)c(C(=O)N/N=C3\S/C(=C\c4ccccc4Cl)C(=O)N3c3ccccc3)s2)cc1 | 250 (≈ 414 µM) | 500 (≈ 828 µM) | 250 (≈ 414 µM) | 250 (≈ 414 µM) | 250 (≈ 414 µM) | 250 (≈ 414 µM) | 500 (≈ 828 µM) |  |  |  |
| COc1ccc(C(=O)Nc2nc(C)c(C(=O)NN)s2)cc1 | > 1000 | 1000 (≈ 3260 µM) | 1000 (≈ 3260 µM) | > 1000 | > 1000 | 1000 (≈ 3260 µM) | 1000 (≈ 3260 µM) |  |  |  |
| COc1ccc(C(=O)Nc2nc(C)c(C(=O)N/N=C3\SCC(=O)N3c3ccccc3)s2)cc1 | 250 (≈ 519 µM) | 500 (≈ 1040 µM) | 250 (≈ 519 µM) | 500 (≈ 1040 µM) | 1000 (≈ 2080 µM) | 500 (≈ 1040 µM) | 1000 (≈ 2080 µM) |  |  |  |
| COc1ccc(C(=O)Nc2nc(C)c(C(=O)N/N=C3\S/C(=C\c4ccc(C)cc4)C(=O)N3c3ccccc3)s2)cc1 | 12.5 (≈ 21.4 µM) | 50 (≈ 85.7 µM) | 25 (≈ 42.8 µM) | 50 (≈ 85.7 µM) | 25 (≈ 42.8 µM) | 50 (≈ 85.7 µM) | 100 (≈ 171 µM) | Non-toxic | Non-toxic | Non-toxic |
| COc1ccc(C(=O)Nc2nc(C)c(C(=O)N/N=C3\S/C(=C\c4cccc(O)c4)C(=O)N3c3ccccc3)s2)cc1 | 100 (≈ 171 µM) | 250 (≈ 427 µM) | 100 (≈ 171 µM) | 100 (≈ 171 µM) | 250 (≈ 427 µM) | 100 (≈ 171 µM) | 500 (≈ 854 µM) |  |  |  |
| COc1ccc(C(=O)Nc2nc(C)c(C(=O)N/N=C3\S/C(=C\c4cccc(C)c4)C(=O)N3c3ccccc3)s2)cc1 | 100 (≈ 171 µM) | 100 (≈ 171 µM) | 250 (≈ 428 µM) | 250 (≈ 428 µM) | 250 (≈ 428 µM) | 250 (≈ 428 µM) | 250 (≈ 428 µM) |  |  |  |
| COc1ccc(C(=O)Nc2nc(C)c(C(=O)N/N=C3\S/C(=C\c4ccc([N+](=O)[O-])cc4)C(=O)N3c3ccccc3)s2)cc1 | 250 (≈ 407 µM) | 500 (≈ 813 µM) | 500 (≈ 813 µM) | 500 (≈ 813 µM) | 500 (≈ 813 µM) | 500 (≈ 813 µM) | 500 (≈ 813 µM) |  |  |  |
| COc1ccc(C(=O)Nc2nc(C)c(C(=O)N/N=C3\S/C(=C\c4ccccc4C)C(=O)N3c3ccccc3)s2)cc1 | 25 (≈ 42.8 µM) | 100 (≈ 171 µM) | 100 (≈ 171 µM) | 250 (≈ 428 µM) | 100 (≈ 171 µM) | 25 (≈ 42.8 µM) | 100 (≈ 171 µM) | Non-toxic | Non-toxic | Non-toxic |
| COc1ccc(C(=O)Nc2nc(C)c(C(=O)N/N=C3\S/C(=C\c4ccccc4OC)C(=O)N3c3ccccc3)s2)cc1 | 250 (≈ 417 µM) | 100 (≈ 167 µM) | 100 (≈ 167 µM) | 100 (≈ 167 µM) | 100 (≈ 167 µM) | 100 (≈ 167 µM) | 100 (≈ 167 µM) | Non-toxic | Non-toxic | Non-toxic |
| COc1ccc(C(=O)Nc2nc(C)c(C(=O)N/N=C3\S/C(=C\c4cccc(OC)c4)C(=O)N3c3ccccc3)s2)cc1 | 50 (≈ 83.4 µM) | 250 (≈ 417 µM) | 250 (≈ 417 µM) | 250 (≈ 417 µM) | 250 (≈ 417 µM) | 250 (≈ 417 µM) | 500 (≈ 834 µM) |  |  |  |
| COc1ccc(C(=O)Nc2nc(C)c(C(=O)N/N=C3\S/C(=C\c4ccc(F)cc4)C(=O)N3c3ccccc3)s2)cc1 | 500 (≈ 851 µM) | 250 (≈ 425 µM) | 500 (≈ 851 µM) | 500 (≈ 851 µM) | 250 (≈ 425 µM) | 250 (≈ 425 µM) | 500 (≈ 851 µM) |  |  |  |
| COc1ccc(C(=O)Nc2nc(C)c(C(=O)N/N=C3\S/C(=C\c4ccc(Cl)cc4)C(=O)N3c3ccccc3)s2)cc1 | 500 (≈ 828 µM) | 500 (≈ 828 µM) | 500 (≈ 828 µM) | 250 (≈ 414 µM) | 500 (≈ 828 µM) | 500 (≈ 828 µM) | 500 (≈ 828 µM) |  |  |  |
| COc1ccc(C(=O)Nc2nc(C)c(C(=O)N/N=C3\S/C(=C\c4ccccc4[N+](=O)[O-])C(=O)N3c3ccccc3)s2)cc1 | 500 (≈ 813 µM) | 250 (≈ 407 µM) | 250 (≈ 407 µM) | 500 (≈ 813 µM) | 250 (≈ 407 µM) | 250 (≈ 407 µM) | 1000 (≈ 1630 µM) |  |  |  |
| COC1=CC(=O)C[C@@H](C)[C@]12Oc1c(Cl)c(OC)cc(OC)c1C2=O [GRISEOFULVIN] |  |  | 100 (≈ 283 µM) |  | 100 (≈ 283 µM) |  | 500 (≈ 1420 µM) |  |  |  |
| COc1ccc(/C=C2\S/C(=N\NC(=O)c3sc(NC(=O)c4ccc(OC)cc4)nc3C)N(c3ccccc3)C2=O)cc1 | 25 (≈ 41.7 µM) | 50 (≈ 83.4 µM) | 50 (≈ 83.4 µM) | 100 (≈ 167 µM) | 100 (≈ 167 µM) | 50 (≈ 83.4 µM) | 50 (≈ 83.4 µM) | Non-toxic | Non-toxic | Non-toxic |
